# Measurements: patent publication US10189857B2, “Positive allosteric modulators of the muscarinic acetylcholine receptor M4” (Vanderbilt University, priority 2016, dated 2019)
# Target: T1, Human M4 (Homo sapiens, UniProt P08173)
# T1 construct: expressed in transfected cells; host or cells: CHO-K1 (American Type Culture Collection), stably expressing M4 and Gqi5
# T1 sequence (P08173 1-479): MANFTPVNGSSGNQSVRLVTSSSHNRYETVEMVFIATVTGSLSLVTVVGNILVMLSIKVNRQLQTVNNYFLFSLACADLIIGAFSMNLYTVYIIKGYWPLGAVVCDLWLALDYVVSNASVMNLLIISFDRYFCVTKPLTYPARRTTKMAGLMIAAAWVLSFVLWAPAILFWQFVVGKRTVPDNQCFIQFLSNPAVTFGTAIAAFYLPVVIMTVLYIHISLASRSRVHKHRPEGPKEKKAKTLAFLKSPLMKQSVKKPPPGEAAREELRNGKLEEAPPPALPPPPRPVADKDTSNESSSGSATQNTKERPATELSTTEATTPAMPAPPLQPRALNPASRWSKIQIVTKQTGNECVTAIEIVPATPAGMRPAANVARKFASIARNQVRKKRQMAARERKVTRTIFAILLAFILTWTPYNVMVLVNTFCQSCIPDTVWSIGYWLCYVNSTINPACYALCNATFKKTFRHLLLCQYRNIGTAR
# Test: mAChR M4 cell-based functional assay (calcium flux, potentiation of EC20 acetylcholine response)
# Settings: M4/Gqi5/CHO-K1 cells; for Emax at 30 µM: % ACh maximum at 30 μM; for EC50: PAM activity as increase in EC20 acetylcholine response
# Experimental: Human M4 cDNA, along with the chimeric G protein Gqi5, were transfected into Chinese hamster ovary (CHO-K1) cells purchased from the American Type Culture Collection using Lipofectamine2000. M4/Gqi5/CHO cells were grown in Ham's F-12 medium containing 10% heat-inactivated fetal bovine serum (FBS), 20 mM HEPES, 500 μg/mL G418 sulfate, and 200 μg/mL Hygromycin B.
# For high throughput measurement of agonist-evoked increases in intracellular calcium, CHO-K1 cells stably expressing muscarinic receptors were plated in growth medium lacking G418 and hygromycin at 15,000 cells/20 μL/well in Greiner 384-well black-walled, tissue culture (TC)-treated, clear-bottom plates (VWR). Cells were incubated overnight at 37° C. and 5% CO2. The next day, cells were washed using an ELX 405 (BioTek) with assay buffer; the final volume was then aspirated to 20 μL. Next, 20 μL of a 2.3 μM stock of Fluo-4/acetoxymethyl ester (Invitrogen, Carlsbad, Calif.), prepared as a 2.3 mM stock in DMSO and mixed in a 1:1 ratio with 10% (w/v) Pluronic F-127 and diluted in assay buffer, was added to the wells and the cell plates were incubated for 50 min at 37° C. and 5% CO2. Dye was removed by washing with the ELX 405 and the final volume was aspirated to 20 μL. Compound master plates were formatted in an 11 point concentration-response curve (CRC) format (1:3 dilutions) in 100% DMSO with a starting concentration of 10 mM using a BRAVO liquid handler (Agilent). Test compound CRCs were then transferred to daughter plates (240 nL) using the Echo acoustic plate reformatter (Labcyte, Sunnyvale, Calif.) and then diluted into assay buffer (40 μL) to a 2× stock using a Thermo Fisher Combi (Thermo Fisher Scientific, Waltham, Mass.).
# Calcium flux was measured using the Functional Drug Screening System (FDSS) 6000 or 7000 (Hamamatsu Corporation, Tokyo, Japan) as an increase in the fluorescent static ratio. Compounds were applied to cells (20 μL, 2×) using the automated system of the FDSS at 2-4 seconds into the protocol and the data were collected at 1 Hz. At approximately 144 s, […] an EC20 concentration of the muscarinic receptor agonist acetylcholine was added (5×), followed by the addition of 12 μL of an EC80 concentration of acetylcholine at approximately the 230 s time point (5×). Agonist activity was analyzed as a concentration-dependent increase in calcium mobilization upon compound addition. Positive allosteric modulator activity was analyzed as a concentration-dependent increase in the EC20 acetylcholine response. Antagonist activity was analyzed as a concentration-dependent decrease in the EC80 acetylcholine response. Concentration-response curves were generated using a four-parameter logistical equation in XLFit curve fitting software (IDBS, Bridgewater, N.J.) for Excel (Microsoft, Redmond, Wash.) or Prism (GraphPad Software, Inc., San Diego, Calif.) or the Domatics software platform (Domatics, Bishop's Stortford, UK).
# Compounds were synthesized as described above. Activity (EC50 and Emax) was determined in the mAChR M4 cell-based functional assay as described above and the data are shown in Table 2. The compound numbers correspond to the compound numbers used in Table 1.
Structure (SMILES),Emax at 30 µM [%],EC50 [nM]
"Cc1c2c(N)c(C(=O)N3CCC(c4ccccc4)C3)sc2nn2cnnc12 (stereo not drawn) [Compound 1, (8-amino-9-methylthieno[3,2-e][1,2,4]triazolo[4,3-b]pyridazin-7-yl)(3-phenylpyrrolidin-1-yl)methanone]",38.8,3330
"Cc1c2c(N)c(C(=O)NC3CCC3)sc2nn2cnnc12 [Compound 6, 8-amino-N-cyclobutyl-9-methylthieno[3,2-e][1,2,4]triazolo[4,3-b]pyridazine-7-carboxamide]",71.8,890
"Cc1c2c(N)c(C(=O)NCc3ccc(F)cc3)sc2nn2cnnc12 [Compound 9, 8-amino-N-(4-fluorobenzyl)-9-methylthieno[3,2-e][1,2,4]triazolo[4,3-b]pyridazine-7-carboxamide]",76.3,1120
"Cc1c2c(N)c(C(=O)NC3Cc4ccccc4C3)sc2nn2cnnc12 [Compound 3, 8-amino-N-(2,3-dihydro-1H-inden-2-yl)-9-methylthieno[3,2-e][1,2,4]triazolo[4,3-b]pyridazine-7-carboxamide]",82.3,90
"Cc1c2c(N)c(C(=O)NC3CCN(c4ccccc4)CC3)sc2nn2cnnc12 [Compound 7, 8-amino-9-methyl-N-(1-phenylpiperidin-4-yl)thieno[3,2-e][1,2,4]triazolo[4,3-b]pyridazine-7-carboxamide]",42.5,7000
"COc1ccc(CNC(=O)c2sc3nn4cnnc4c(C)c3c2N)cc1 [Compound 4, 8-amino-N-(4-methoxybenzyl)-9-methylthieno[3,2-e][1,2,4]triazolo[4,3-b]pyridazine-7-carboxamide]",80.6,670
"Cc1c2c(N)c(C(=O)N3CCCC3)sc2nn2cnnc12 [Compound 2, (8-amino-9-methylthieno[3,2-e][1,2,4]triazolo[4,3-b]pyridazin-7-yl)(pyrrolidin-1-yl)methanone]",72.2,9670
"Cc1c2c(N)c(C(=O)NC3CC3)sc2nn2cnnc12 [Compound 5, 8-amino-N-cyclopropyl-9-methylthieno[3,2-e][1,2,4]triazolo[4,3-b]pyridazine-7-carboxamide]",74.2,290
"Cc1c2c(N)c(C(=O)NCc3cccc(F)c3)sc2nn2cnnc12 [Compound 8, 8-amino-N-(3-fluorobenzyl)-9-methylthieno[3,2-e][1,2,4]triazolo[4,3-b]pyridazine-7-carboxamide]",78,370
